Numbers after ± are expanded uncertainties.
What was measured:
[1] = xn = mol fraction of the nth substance listed; conditions: 101 kPa, Liquid; for mass density: Vibrating tube method
[2] = excess molar enthalpy (molar enthalpy of mixing); xn = mol fraction of the nth substance listed; conditions: 308.15 K, 101 kPa, Liquid, 2-drop calorimeter (CSC 4600_

c1ccncc1 [pyridine] + C1CCOCC1
[1]
Conditions | mass density, 298.15 K [kg/m3] | mass density, 303.15 K [kg/m3] | mass density, 308.15 K [kg/m3] | speed of sound, 298.15 K [m/s] | speed of sound, 303.15 K [m/s] | speed of sound, 308.15 K [m/s]
x2 = 0 | 978.249 ± 0.3 | 973.224 ± 0.3 | 968.166 ± 0.3 | 1417.6 ± 1.1 | 1397.4 ± 1.1 | 1377.1 ± 1.1
x2 = 0.0427 | 973.663 ± 0.32 | 968.634 ± 0.32 | 963.658 ± 0.32 | 1411.9 ± 1.1 | 1391.4 ± 1.1 | 1370.9 ± 1.1
x2 = 0.1021 | 967.309 ± 0.35 | 962.276 ± 0.35 | 957.232 ± 0.35 | 1403.6 ± 1.2 | 1382.9 ± 1.2 | 1362.3 ± 1.2
x2 = 0.1883 | 958.157 ± 0.39 | 953.12 ± 0.39 | 948.063 ± 0.39 | 1391.4 ± 1.3 | 1370.2 ± 1.3 | 1349.4 ± 1.3
x2 = 0.2415 | 952.565 ± 0.42 | 947.532 ± 0.42 | 942.634 ± 0.42 | 1383.7 ± 1.3 | 1362.2 ± 1.3 | 1341.1 ± 1.3
x2 = 0.2853 | 948.002 ± 0.45 | 942.969 ± 0.45 | 938.037 ± 0.45 | 1377.4 ± 1.4 | 1355.6 ± 1.4 | 1334.3 ± 1.4
x2 = 0.3438 | 941.972 ± 0.48 | 936.936 ± 0.48 | 931.957 ± 0.48 | 1368.8 ± 1.4 | 1346.7 ± 1.4 | 1325.4 ± 1.4
x2 = 0.3742 | 938.871 ± 0.5 | 933.829 ± 0.5 | 928.814 ± 0.5 | 1364.2 ± 1.4 | 1342.1 ± 1.4 | 1320.6 ± 1.4
x2 = 0.4263 | 933.597 ± 0.53 | 928.553 ± 0.53 | 923.491 ± 0.53 | 1356.5 ± 1.5 | 1334 ± 1.5 | 1312.5 ± 1.5
x2 = 0.4642 | 929.793 ± 0.56 | 924.748 ± 0.55 | 919.649 ± 0.55 | 1350.7 ± 1.5 | 1328.2 ± 1.5 | 1306.7 ± 1.5
x2 = 0.5364 | 922.65 ± 0.6 | 917.601 ± 0.6 | 912.425 ± 0.59 | 1339.8 ± 1.6 | 1317.1 ± 1.6 | 1295.4 ± 1.6
x2 = 0.5721 | 919.167 ± 0.62 | 914.108 ± 0.62 | 908.895 ± 0.61 | 1334.4 ± 1.6 | 1311.6 ± 1.6 | 1289.8 ± 1.6
x2 = 0.6283 | 913.73 ± 0.66 | 908.661 ± 0.65 | 903.408 ± 0.65 | 1325.8 ± 1.7 | 1302.9 ± 1.7 | 1281.1 ± 1.7
x2 = 0.6872 | 908.097 ± 0.69 | 903.027 ± 0.69 | 897.739 ± 0.69 | 1316.9 ± 1.8 | 1293.9 ± 1.8 | 1271.9 ± 1.7
x2 = 0.7336 | 903.711 ± 0.72 | 898.628 ± 0.72 | 893.335 ± 0.72 | 1309.8 ± 1.8 | 1286.9 ± 1.8 | 1264.7 ± 1.8
x2 = 0.7823 | 899.149 ± 0.76 | 894.056 ± 0.75 | 888.752 ± 0.75 | 1302.5 ± 1.8 | 1279.5 ± 1.8 | 1257.3 ± 1.8
x2 = 0.8351 | 894.248 ± 0.79 | 889.143 ± 0.79 | 883.845 ± 0.78 | 1294.4 ± 1.9 | 1271.5 ± 1.9 | 1249.2 ± 1.9
x2 = 0.8752 | 890.543 ± 0.82 | 885.431 ± 0.81 | 880.16 ± 0.81 | 1288.5 ± 1.9 | 1265.4 ± 1.9 | 1243.1 ± 1.9
x2 = 0.9354 | 885.027 ± 0.86 | 879.898 ± 0.85 | 874.668 ± 0.85 | 1279.5 ± 2 | 1256.4 ± 2 | 1234.1 ± 2

[2]
Conditions | excess molar enthalpy [kcal/mol]
x2 = 0.0552 | 0.00315 ± 0.000263
x2 = 0.1006 | 0.00626 ± 0.000311
x2 = 0.1525 | 0.0101 ± 0.000335
x2 = 0.2014 | 0.0141 ± 0.000382
x2 = 0.2915 | 0.0215 ± 0.000454
x2 = 0.3462 | 0.0254 ± 0.000502
x2 = 0.3871 | 0.029 ± 0.000526
x2 = 0.4217 | 0.0314 ± 0.00055
x2 = 0.4853 | 0.0347 ± 0.000598
x2 = 0.5363 | 0.0376 ± 0.000621
x2 = 0.5802 | 0.0387 ± 0.000621
x2 = 0.6461 | 0.039 ± 0.000621
x2 = 0.6864 | 0.0391 ± 0.000621
x2 = 0.7344 | 0.0374 ± 0.000621
x2 = 0.7856 | 0.0341 ± 0.000574
x2 = 0.8315 | 0.0298 ± 0.00055
x2 = 0.8911 | 0.0219 ± 0.000454
x2 = 0.9347 | 0.0139 ± 0.000382

Reference: the NIST ThermoML archive (doi:10.1016/j.tca.2011.02.002)
